The values below come from patent US11066414B2, “Cot modulators and methods of use thereof” (Gilead Sciences, Inc., priority 2015, dated 2021).

By EC50 is commonly meant the concentration that produces a half-maximal response. Usually IC50 stands for the midpoint of a concentration-inhibition curve.

For one test, the system named is TNFα. The test can be described thus: Cot Monocyte TNFα Cell Based Assay.
A further test concerns the target Human Cot (Homo sapiens (Human), UniProt P41279). The test can be described thus: High Throughput Cot Biochemical Assay. Conditions: Cot HTRF (TR-FRET) biochemical assay.
The mark [1] stands for this setting: Homo sapiens, Monocyte, read-out: EC50 TNF, LPS-stimulated human monocytes, TNFα.
Setting [2] is: read-out: EC50 TNF, LPS-stimulated human monocytes, TNFα.

Where two headings read alike, the source gives them in different places.

Human Cot, sequence (P41279 30-397): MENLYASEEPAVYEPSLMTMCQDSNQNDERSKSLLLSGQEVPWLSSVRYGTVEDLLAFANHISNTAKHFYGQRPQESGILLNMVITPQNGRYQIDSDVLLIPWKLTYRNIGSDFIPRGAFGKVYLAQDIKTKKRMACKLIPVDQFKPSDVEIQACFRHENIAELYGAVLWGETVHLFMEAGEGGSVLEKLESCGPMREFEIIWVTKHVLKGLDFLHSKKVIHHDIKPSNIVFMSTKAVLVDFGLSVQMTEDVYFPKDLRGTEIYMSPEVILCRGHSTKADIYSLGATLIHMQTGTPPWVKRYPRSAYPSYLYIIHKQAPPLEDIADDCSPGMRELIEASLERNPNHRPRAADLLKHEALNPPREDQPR

As to `N#CCC[C@@H](Nc1c(C#N)cnc2c(Cl)cc(N[C@@H](c3cccnc3)c3cn(C4CC4)nn3)cc12)c1ccccc1` [Example 75, 8-chloro-4-(((R)-3-cyano-1-phenylpropyl)amino)-6-(((S)-(1-cyclopropyl-1H-1,2,3-triazol-4-yl)(pyridin-3-yl)methyl)amino)quinoline-3-carbonitrile], the EC50 with TNFα (setting [1]) came to 79 nM. This compound yielded an IC50 against Human Cot (IC50 HTRF) of 2 nM.

On to `CN1Cc2cccc([C@H](Nc3cc(C#N)c4ncc(C#N)c(NCC(C)(C)C)c4c3)c3cn(C4CC4)nn3)c2C1=O` [Example 77, (S)-6-(((1-cyclopropyl-1H-1,2,3-triazol-4-yl)(2-methyl-3-oxoisoindolin-4-yl)methyl)amino)-4-(neopentylamino)quinoline-3,8-dicarbonitrile], for which the EC50 in the test with TNFα (setting [1]) was 154 nM. The IC50 against Human Cot (IC50 HTRF) stood at 3 nM.

For the compound `CC(C)(C)CNc1c(C#N)cnc2c(Br)cc(N[C@H](c3cn(C4CC4)nn3)c3cccc4c3C(=O)NC4)cc12` [Example 78, (S)-8-bromo-6-(((1-cyclopropyl-1H-1,2,3-triazol-4-yl)(3-oxoisoindolin-4-yl)methyl)amino)-4-(neopentylamino)quinoline-3-carbonitrile], in the test with TNFα (setting [1]), the EC50 came to 332 nM. The compound also had an IC50 against Human Cot (IC50 HTRF) of 3 nM.

With `CC(C)(C)CNc1c(C#N)cnc2c(Cl)cc(N[C@@H](c3cn(C4CC4)nn3)c3csc4c3CCN(C3COC3)C4)cc12` [Example 81, (R)-8-chloro-6-(((1-cyclopropyl-1H-1,2,3-triazol-4-yl)(6-(oxctan-3-yl)-4,5,6,7-tetrahydrothieno[2,3-c]pyridin-3-yl)methyl)amino)-4-(neopentylamino)-quinoline-3-carbonitrile], the EC50 in the test on TNFα (setting [2]) was greater than 1000 nM. The IC50 at Human Cot (read-out: IC50 HTRF) stood at 400 nM.

`N#CCCC(Nc1c(C#N)cnc2c(Cl)cc(N[C@H](c3cn(C4[C@H]5CN(C6COC6)C[C@@H]45)nn3)c3csc4c3CCN(C3COC3)C4)cc12)c1ccccc1` (stereo partly drawn) [Example 82, 8-chloro-4-((3-cyano-1-phenylpropyl)amino)-6-(((S)-(1-((1R,5S,6r)-3-(oxetan-3-yl)-3-azabicyclo[3.1 0]hexan-6-yl)-1H-1,2,3-triazol-4-yl)(6-(oxetan-3-yl)-4,5,6,7-tetrahydrothieno[2,3-c]pyridin-3-yl)methyl)amino)-quinoline-3-carbonitrile]: in the test with TNFα (setting [2]), the EC50 was found to be 151 nM. The IC50 on Human Cot (read-out: IC50 HTRF) amounted to 2 nM.

As for `N#CCCC(Nc1c(C#N)cnc2c(Cl)cc(N[C@@H](c3cn(C4CC4)nn3)c3csc4c3CCN(C3COC3)C4)cc12)c1ccccc1` (some centres unmarked) [Example 83, 8-chloro-4-((3-cyano-1-phenylpropyl)amino)-6-(((RH 1-cyclopropyl-1H-1,2,3-triazol-4-yl)(6-(oxetan-3-yl)-4,5,6,7-tetrahydrothieno[2,3-c]pyridin-3-yl)methyl)amino)-quinoline-3-carbonitrile], in the test with TNFα (setting [2]), the EC50 amounted to 1000 nM. At Human Cot (read-out: IC50 HTRF), the IC50 came out at 942 nM.

With `N#CCC[C@@H](Nc1c(C#N)cnc2c(Cl)cc(N[C@H](c3cn(C4CC4)nn3)c3csc4c3CCN(C3COC3)C4)cc12)c1ccccc1` [Example 84, 8-chloro-4-(((R)-3-cyano-1-phenylpropyl)amino)-6-(((S)-(1-cyclopropyl-1H-1,2,3-triazol-4-yl)(6-(oxetan-3-yl)-4,5,6,7-tetrahydrothieno[2,3-c]pyridin-3-yl)methyl)amino)quinoline-3-carbonitrile], the EC50 in the test with TNFα (setting [1]) came to 10 nM. For the same compound, it took 1 nM to reach half-maximal inhibition at Human Cot (IC50 HTRF) (IC50).

Consider `[2H][C@](Nc1cc(Cl)c2ncc(C#N)c(NCC(C)(C)C)c2c1)(c1ccc(F)nc1)c1cn(CC(=O)O)nn1` [Example 85, (S)-2-(4-(((8-chloro-3-cyano-4-(neopentylamino)quinolin-6-yl)amino)(6-fluoropyridin-3-yl)methyl-d)-1H-1,2,3-triazol-1-yl)acetic acid], for which the EC50 in the test with TNFα (setting [1]) is greater than 1000 nM. The same compound showed an IC50 on Human Cot (IC50 HTRF) of 4 nM.

Take `[2H]C(Nc1cc(Cl)c2ncc(C#N)c(N[C@@H](CCC#N)c3ccccc3)c2c1)(c1ccc(F)nc1)c1cn(C2CC2)nn1` (stereo partly drawn) [Example 88, 8-chloro-4-(((S)-3-cyano-1-phenylpropyl)amino)-6-(((1-cyclopropyl-1H-1,2,3-triazol-4-yl)(6-fluoropyridin-3-yl)methyl-d)amino)quinoline-3-carbonitrile]: in the test on TNFα (setting [1]), the EC50 is greater than 1000 nM. In addition, half-maximal inhibition at Human Cot (IC50 HTRF) (IC50) required 1160 nM.

As for `[2H]C(Nc1cc(Cl)c2ncc(C#N)c(N[C@H](CCC#N)c3ccccc3)c2c1)(c1ccc(F)nc1)c1cn(C2CC2)nn1` (stereo partly drawn) [Example 89, 8-chloro-4-(((R)-3-cyano-1-phenylpropyl)amino)-6-(((1-cyclopropyl-1H-1,2,3-triazol-4-yl)(6-fluoropyridin-3-yl)methyl-d)amino)quinoline-3-carbonitrile], in the test with TNFα (setting [1]), the EC50 was greater than 1000 nM. This compound also gave an IC50 on Human Cot (IC50 HTRF) of 520 nM.

Take `N#CCCC(Nc1c(C#N)cnc2c(Cl)cc(N[C@H](c3cn(C4CC4)nn3)c3csc4c3CCN(C3COC3)C4)cc12)c1ccccc1` (stereo partly drawn) [Example 90, 8-chloro-4-((3-cyano-1-phenyl-propyl)amino)-6-(((S)-(1-cyclopropyl-1H-1,2,3-triazol-4-yl)(6-(oxetan-3-yl)-4,5,6,7-tetrahydrothieno[2,3-c]pyridin-3-yl)methyl)amino)quinoline-3-carbonitrile]: the EC50 in the test on TNFα (setting [1]) was 18 nM. Besides, it took 1 nM to reach half-maximal inhibition at Human Cot (IC50 HTRF) (IC50).

Turning to `CC(C)(C)CNc1c(C#N)cnc2c(Cl)cc(NC(c3cn(C4CC4)nn3)c3csc4c3CCN(C3COC3)C4)cc12` (centres unmarked) [Example 91, 8-chloro-6-(((1-cyclopropyl-1H-1,2,3-triazol-4-yl)(6-(oxetan-3-yl)-4,5,6,7-tetrahydro-thieno[2,3-c]pyridin-3-yl)-methyl)amino)-4-(neopentylamino)-quinoline-3-carbonitrile], in the test on TNFα (setting [1]), the EC50 is 52 nM. The same compound gave an IC50 at Human Cot (IC50 HTRF) of 2 nM.

Regarding `[2H][C@](Nc1cc(Cl)c2ncc(C#N)c(NC3CCOCC3(C)C)c2c1)(c1ccc(F)nc1)c1cn(C2CC2)nn1` (stereo partly drawn) [Example 92, 8-chloro-6-(((S)-(1-cyclopropyl-1H-1,2,3-triazol-4-yl)(6-fluoropyridin-3-yl)methyl-d)amino)-4-((3,3-dimethyltetrahydro-2H-pyran-4-yl)amino)quinoline-3-carbonitrile], the EC50 in the test with TNFα (setting [1]) stood at 65 nM. Also, half-maximal inhibition on Human Cot (IC50 HTRF) (IC50) was put at 6 nM.

As to `[2H]C(Nc1cc(Cl)c2ncc(C#N)c(NC(CCC#N)c3ccccc3)c2c1)(c1ccc(F)nc1)c1cn(C2CC2)nn1` (centres unmarked) [Example 93, 8-chloro-4-((3-cyano-1-phenylpropyl)amino)-6-(((1-cyclopropyl-1H-1,2,3-triazol-4-yl)(6-fluoropyridin-3-yl)methyl-d)amino)quinoline-3-carbonitrile], the EC50 in the test with TNFα (setting [1]) was determined as 74 nM. The compound also showed an IC50 at Human Cot (IC50 HTRF) of 7 nM.

Regarding `[2H][C@](Nc1cc(Cl)c2ncc(C#N)c(Nc3cccc(Cl)c3OC)c2c1)(c1ccc(F)nc1)c1cn(C2CC2)nn1` [Example 94, (S)-8-chloro-4-((3-chloro-2-methoxyphenyl)amino)-6-(((1-cyclopropyl-1H-1,2,3-triazol-4-yl)(6-fluoropyridin-3-yl)methyl-d)amino)quinoline-3-carbonitrile], the EC50 in the test with TNFα (setting [1]) turned out to be 130 nM. The same compound displayed an IC50 on Human Cot (IC50 HTRF) of 2 nM.

Turning to `[2H][C@](Nc1cc(Cl)c2ncc(C#N)c(Nc3ccc(OC)c(Cl)c3)c2c1)(c1ccc(F)nc1)c1cn(C2CC2)nn1` [Example 96, (S)-8-chloro-4-((3-chloro-4-methoxyphenyl)amino)-6-(((1-cyclopropyl-1H-1,2,3-triazol-4-yl)(6-fluoropyridin-3-yl)methyl-d)amino)quinoline-3-carbonitrile], the EC50 in the test on TNFα (setting [1]) came out at 173 nM. For the same compound, the IC50 against Human Cot (IC50 HTRF) turned out to be 11 nM.

`[2H][C@](Nc1cc(OC)c2ncc(C#N)c(N[C@H](CC)c3ccccc3)c2c1)(c1ccc(F)nc1)c1cn(C2CC2)nn1` [Example 97, 6-(((S)-(1-cyclopropyl-1H-1,2,3-triazol-4-yl)(6-fluoropyridin-3-yl)methyl-d)amino)-8-methoxy-4-(((R)-1-phenylpropyl)amino)-quinoline-3-carbonitrile]: in the test on TNFα (setting [1]), the EC50 was determined as 358 nM. Further, the IC50 against Human Cot (IC50 HTRF) stood at 20 nM.

With `[2H][C@](Nc1cc(OC)c2ncc(C#N)c(NCC(C)(C)C)c2c1)(c1ccc(F)nc1)c1cn(C2CC2)nn1` [Example 98, (S)-6-(((1-cyclopropyl-1H-1,2,3-triazol-4-yl)(6-fluoropyridin-3-yl)methyl-d)amino)-8-methoxy-4-(neopentylamino)quinoline-3-carbonitrile], the EC50 with TNFα (setting [1]) stood at 821 nM. Besides, on Human Cot (IC50 HTRF), the IC50 turned out to be 49 nM.

Take `[2H][C@](Nc1cc(C#N)c2ncc(C#N)c(NCC(C)(C)C)c2c1)(c1ccc(F)nc1)c1cn(C)nn1` [Example 99, (S)-6-(((6-fluoropyridin-3-yl)(1-methyl-1H-1,2,3-triazol-4-yl)methyl-d)amino)-4-(neopentylamino)quinoline-3,8-dicarbonitrile]: in the test with TNFα (setting [1]), the EC50 amounted to 143 nM. Further, on Human Cot (IC50 HTRF), the IC50 amounted to 3 nM.

As for `[2H][C@](Nc1cc(C#N)c2ncc(C#N)c(N[C@H](CC#N)c3ccccc3)c2c1)(c1ccc(F)nc1)c1cn(C2CC2)nn1` [Example 100, 4-(((R)-2-cyano-1-phenylethyl)amino)-6-(((S)-(1-cyclopropyl-1H-1,2,3-triazol-4-yl)(6-fluoropyridin-3-yl)methyl-d)amino)quinoline-3,8-dicarbonitrile], the EC50 in the test on TNFα (setting [1]) is 142 nM. This compound also came in with an IC50 on Human Cot (IC50 HTRF) of 3 nM.

On to `[2H]C(Nc1cc(Cl)c2ncc(C#N)c(N[C@H](CC)c3ccccc3)c2c1)(c1cn(C2CC2)nn1)c1scnc1C` (stereo partly drawn) [Example 101, 8-chloro-6-(((1-cyclopropyl-1H-1,2,3-triazol-4-yl)(4-methylthiazol-5-yl)methyl-d)amino)-4-(((R)-1-phenylpropyl)amino)quinoline-3-carbonitrile], for which, in the test with TNFα (setting [1]), the EC50 was determined as 348 nM. Further, the IC50 against Human Cot (IC50 HTRF) was found to be 5 nM.

For the compound `[2H]C(Nc1cc(Cl)c2ncc(C#N)c(NCC(C)(C)C)c2c1)(c1cn(C2CC2)nn1)c1scnc1C` (centres unmarked) [Example 102, 8-chloro-6-(((1-cyclopropyl-1H-1,2,3-triazol-4-yl)(4-methylthiazol-5-yl)methyl-d)amino)-4-(neopentyl-amino)quinoline-3-carbonitrile], the EC50 in the test with TNFα (setting [1]) turned out to be 461 nM. At Human Cot (IC50 HTRF), the IC50 worked out at 3 nM.
